Reference: patent US20060167269A1, “Compounds and methods for the inhibition of compounds cruzi” (priority 2001, published 2006)
Values joined by “and” are separate entries in the source; they are usually repeats but may differ in a detail not shown here. Equal entries are not always repeated. Where two headings read alike, the source gives them in different places.

Columns and labels:
C. albicans = experiment: Candida broth dilution assay, C. albicans; type: cell-based; conditions: 80% growth inhibition, 24 h
Procedure: (§1) The compound JJ119 was tested for anti-Candida activity in a standard assay, as described below, against a number of strains of fungus. The assay compared inhibition (the effective dose causing 80% growth inhibition of the fungus) of several strains of Candida spp. using Fluconazole and compound JJ 119 (R^3 is CH3, all other variable substituents are H) of the present invention (see Table I, above).
(§2) The Candida assay followed the “Reference method for broth dilution antifungal susceptibility testing of yeasts; approved standard”, NCCLS, June, 1997. The procedure was modified to a 96 well format (as described in Modifications section 3.8). The methodology employed deviated from the approved method by reading results at 24 h rather than 48 h (since cultures of the ATCC strains were generally dense by 24 h).
(§3) In general, Candida were inoculated at a density of 2×10^3/ml in RPMI based medium in the presence of drugs at the following concentrations: 50 uM, 10 uM, 2 uM, 0.4 uM, and 0 uM. Cells were incubated at 34° C. for 24 hr and growth inhibition was scored visually for turbidity. All drugs were diluted in DMSO (except fluconazole which was diluted in water). Top concentration of DMSO in the cultures was 0.25%; DMSO alone at 0.5% was not inhibitory to C. albicans.

C. glabrata = experiment: Candida broth dilution assay, C. glabrata; type: cell-based; conditions: 80% growth inhibition, 24 h
Procedure: as §1, §2, §3

mouse 3T3 fibroblasts = experiment: inhibition of fibroblast growth (indication of potential toxicity); type: cell-based; conditions: inhibition of 3T3 fibroblast growth
Procedure: (§4) Compounds which appear in Table 1, below were tested […] using the Tulahuen strain of T. cruzi. See Buckner, et al., Antimicrobial Agents and Chemotherapy, 40, 2592-2597 (1996). In this assay, trypomastigotes were grown on monolayers of mouse 3T3 fibroblasts as previously described by Van Voorhis, et al., J. Exp. Med. 169: 641-652 (1989). […] The assay also tested for inhibition of fibroblast growth (an indication of potential toxicity). In virtually all instances, the compounds were non-toxic in the assay. In Table 1, if a substituent is left blank, such a substituent is defined as a hydrogen. [drawing 5]

[1] = tested on: T. cruzi (Tulahuen strain); experiment: T. cruzi growth on monolayers of mouse 3T3 fibroblasts; type: cell-based, Trypanosoma cruzi
Procedure: as §4

[2] = tested on: T. cruzi trypomastigotes (Tulahuen); experiment: anti-T. cruzi activity in infected mice; type: in vivo, mouse
Procedure: FIGS. 3A and B represent mouse data for compound JJ121. FIG. 3A represents Parasite levels and FIG. 3B represents Survival for treated and control mice. Mice were dosed orally at 50 mg/kg twice daily on days 1-10. They were infected with T. cruzi trypomastigotes (Tulahuen) 2×10^3 SQ at day 0. Parasitemia was quantified microscopically on a small drop of tail blood at 400×.
Despite this apparent stability, however, the results for anti-T. cruzi activity in infected mice is much better for JJ121 than for JJ37. […] All mice receiving JJ121 survive past 100 days, whereas the vehicle mice all die by day 20.

[3] = incubation in murine serum (ester hydrolysis); type: in vitro ADME, mouse; conditions: 30 minutes of incubation
Source text: The blood serum esterase levels of mice is very high, and it was thought that eliminating the ester group would increase the bioavailability of the aminobiphenyl over the ester.

Candida spp. = experiment: Candida broth dilution assay; type: cell-based
Procedure: as §1, §2, §3

C. tropicalis = experiment: Candida broth dilution assay, C. tropicalis; type: cell-based; conditions: 80% growth inhibition, 24 h
Procedure: as §1, §2, §3

C. krusei = experiment: Candida broth dilution assay, C. krusei; type: cell-based; conditions: 80% growth inhibition, 24 h
Procedure: as §1, §2, §3

C. parapsilosis = experiment: Candida broth dilution assay, C. parapsilosis; type: cell-based; conditions: 80% growth inhibition, 24 h
Procedure: as §1, §2, §3

[4] = read-out: activity against T. cruzi
[5] = drug concentration giving 50% inhibition of T. cruzi growth on 3T3 fibroblasts, read-out: EC50 T. cruzi

SMILES	EC50 (mouse 3T3 fibroblasts)	EC50 [1, 5]	other results
OC(Cn1cncn1)(Cn1cncn1)c1ccc(F)cc1F [Fluconazole]			ED80 (C. albicans; C. albicans strain 1): 6.53 µM; ED80 (C. glabrata; C. glabrata strain 1): 104.5 μM and (32) μg/ml; ED80 (C. glabrata; C. glabrata strain 2): 6.528 μM and (2) μg/ml; ED80 (C. glabrata; C. glabrata strain 3): 208.9 μM and (64) μg/ml
COC(=O)c1ccc(NCc2cncn2Cc2ccc(C#N)cc2)cc1-c1ccccc1 [JJ20]	> 10 µM		EC50 [1, 4]: 40 nM
COC(=O)c1ccc(NCc2cncn2Cc2ccccc2)cc1-c1ccccc1 [JJ21]	> 10 µM	80 nM	
N#Cc1ccc(Cn2cncc2CNc2ccc(C(=O)O)c(-c3ccccc3)c2)cc1 [JJ28]	> 10 µM		EC50 [1, 4]: 1000 nM
COC(=O)c1ccc(NCc2cncn2Cc2ccc(-c3ccccc3)cc2)cc1-c1ccccc1 [JJ37]	> 10 µM		activity in mouse models ([2]; infected mice): shows activity in mouse models, but much less than that of JJ121; species found after incubation in murine serum [3]: the ester is the only species; EC50 ([1]; read-out: activity against T. cruzi amastigotes): 0.5 nM
COC(=O)c1ccc(NCc2cncn2Cc2ccc([N+](=O)[O-])cc2)cc1-c1ccccc1 [JJ51, p-NO2-imid-BP-COOMe]	> 10 µM	100 nM	
COC(=O)c1ccc(NCc2cncn2Cc2ccc(C)cc2)cc1-c1ccccc1 [JJ52, p-CH3-imid-BP-COOMe]	> 10 µM	5 nM	
COC(=O)c1ccc(NCc2cncn2Cc2ccc(Cl)cc2)cc1-c1ccccc1 [JJ53, p-Cl-imid-BP-COOMe]	> 10 µM	5 nM	
COC(=O)c1ccc(NCc2cncn2Cc2ccc(Br)cc2)cc1-c1ccccc1 [JJ57, p-Br-imid-BP-COOMe]	> 10 µM	20 nM	
COC(=O)c1ccc(NCc2cncn2Cc2ccc(N)cc2)cc1-c1ccccc1 [JJ58, p-NH2-imid-BP-COOMe]	> 10 µM	250 nM	
N#Cc1ccc(Cn2cncc2CNc2cccc(-c3ccccc3)c2)cc1 [JJ73]		50 nM	
COC(=O)c1ccc(NCc2cncn2Cc2cccc([N+](=O)[O-])c2)cc1-c1ccccc1 [JJ81, m-NO2-imid-BP-COOMe]	> 10 µM	30 nM	
COC(=O)c1ccc(NCc2cncn2Cc2cccc(C)c2)cc1-c1ccccc1 [JJ82, m-CH3-imid-BP-COOMe]	> 10 µM	20 nM	
COC(=O)c1ccc(NCc2cncn2Cc2cccc(N)c2)cc1-c1ccccc1 [JJ83, m-NH2-imid-BP-COOMe]	> 10 µM	130 nM	
COC(=O)c1ccc(NCc2cncn2Cc2cccc(Cl)c2)cc1-c1ccccc1 [JJ84, m-Cl-imid-BP-COOMe]	> 10 µM	20 nM	
COC(=O)c1ccc(NCc2cncn2Cc2cccc(Br)c2)cc1-c1ccccc1 [JJ85, m-Br-imid-BP-COOMe]	> 10 µM	20 nM	

SMILES	EC50 (mouse 3T3 fibroblasts)	EC50 [1, 5]	other results
COC(=O)c1ccc(NCc2cncn2Cc2cccc(C#N)c2)cc1-c1ccccc1 [JJ97, m-CN-imid-BP-COOMe]	> 10 µM	100 nM	
COC(=O)c1ccc(NCc2cncn2Cc2ccccc2C)cc1-c1ccccc1 [JJ101, o-CH3-imid-BP-COOMe]		1000 nM	
COC(=O)c1ccc(NCc2cncn2Cc2ccccc2Br)cc1-c1ccccc1 [JJ102, o-Br-imid-BP-COOMe]		100 nM	
COC(=O)c1ccc(NCc2cncn2Cc2ccccc2C#N)cc1-c1ccccc1 [JJ103, o-CN-imid-BP-COOMe]	> 10 µM	200 nM	
COC(=O)c1ccc(NCc2cncn2Cc2cccc(C(F)(F)F)c2)cc1-c1ccccc1 [JJ104]	> 10 µM	40 nM	
COC(=O)c1ccc(NCc2cncn2Cc2ccccc2N)cc1-c1ccccc1 [JJ105, o-NH2-imid-BP-COOMe]	> 10 µM	5 nM	
COC(=O)c1ccc(NCc2cncn2Cc2ccccc2Cl)cc1-c1ccccc1 [JJ117]	> 10 µM		
O=[N+]([O-])c1ccc(Cn2cncc2CNc2cccc(-c3ccccc3)c2)cc1 [JJ118, p-NO2-imid-BP]		100 nM	
Cc1ccc(Cn2cncc2CNc2cccc(-c3ccccc3)c2)cc1 [JJ119, p-CH3-imid-BP]		100 nM	anti-Candida activity (Candida spp.): favorable anti-Candida activity; ED80 (C. tropicalis; C. tropicalis strain 1): >100 µM; ED80 (C. tropicalis; C. tropicalis strain 2 (first line so named, r25)): >100 µM; ED80 (C. tropicalis; C. tropicalis strain 2 (second line so named, r27)): >100 µM; ED80 (C. albicans; C. albicans strain 1): 12.5 µM; ED80 (C. albicans; C. albicans strain 2): 12.5 µM; ED80 (C. albicans; C. albicans strain 3): 6.25 µM; ED80 (C. glabrata; C. glabrata strain 1): 12.5 µM; ED80 (C. glabrata; C. glabrata strain 2): 6.25 µM; ED80 (C. glabrata; C. glabrata strain 3): 25 µM; ED80 (C. krusei; C. krusei strain 1): 25 µM; ED80 (C. krusei; C. krusei strain 2): 50 µM; ED80 (C. krusei; C. krusei strain 3): 25 µM; ED80 (C. parapsilosis; C. parapsilosis strain 1): 100 µM and 50 µM; ED80 (C. parapsilosis; C. parapsilosis strain 2): 25 µM and 12.5 µM
Clc1ccc(Cn2cncc2CNc2cccc(-c3ccccc3)c2)cc1 [JJ120, p-Cl-imid-BP]		80 nM	anti-Candida activity (Candida spp.): exhibited activity
c1ccc(-c2ccc(Cn3cncc3CNc3cccc(-c4ccccc4)c3)cc2)cc1 [JJ121, p-Ph-imid-BP]		10 nM	survival ([2]; mice, oral 50 mg/kg twice daily on days 1-10, vehicle mice all die by day 20): > 100 days; parasite level in mouse blood ([2]; mice, oral 50 mg/kg twice daily, within 45 days): dramatic suppression of parasite from mouse blood; reduced activity compared with JJ37 [1]: 20 fold; IC50 ([1]; T. cruzi): 10 nM
CCOC(=O)c1ccc(NCc2cncn2Cc2ccc(-c3ccccc3)cc2)cc1-c1ccccc1 [JJ128]	> 10 µM	10 nM	
CC(C)OC(=O)c1ccc(NCc2cncn2Cc2ccc(-c3ccccc3)cc2)cc1-c1ccccc1 [JJ129]	> 10 µM	50 nM	
O=C(OC1CCCCC1)c1ccc(NCc2cncn2Cc2ccc(-c3ccccc3)cc2)cc1-c1ccccc1 [JJ130]	> 10 µM	10 nM	
c1ccc(-c2ccc(Cn3cncc3CNc3ccc(-c4cc5ccccc5o4)c(-c4ccccc4)c3)cc2)cc1 [JJ138]	> 10 µM	100 nM	
c1ccc(-c2ccc(Cn3cncc3CNc3ccc(-c4noc5ccccc45)c(-c4ccccc4)c3)cc2)cc1 [JJ141]	> 10 µM	10 nM	
